In patent publication US20170152258A9, “Substituted Pyridopyrazines as Syk Inhibitors” (HUTCHISON MEDIPHARMA LIMITED, priority 2012, published 2017) one finds IC50 data, which are given here for two compounds.

In one test the target is T1, VEGFR-2 (KDR) (Homo sapiens, UniProt P35968).
T1 construct: purchased Invitrogen PV3660
Put plainly: Transcreener Kinase Assay of VEGFR-2 (KDR). The following applies: recombinant human KDR, Transcreener FP. The format is biochemical. The protocol:
Transcreener Kinase Assay of VEGFR-2 (KDR)
• 1) Transcreenen™ KINASE Assy kit: Bellbrook Labs., 3003-10K; • 2) Recombinant human KDR: Invitrogen, PV3660; • 3) Poly E4Y (substrate): Sigma, P0275; 5 mg/mL, dissolved in MilliQ water; • 4) Assay buffer: 67 mM HEPES, 0.013% Triton X-100, 27 mM MgCl2, 0.67 mM MnCl2, 1.25 mM DTT, PH 7.4; • 5) 10 mM ATP: Invitrogen, PV3227; • 6) 500 mM EDTA: Invitrogen, 15575-038; • 7) 96 well black Greiner plate: Greiner, 675076.
• 1) Dilute the compound to 5 folds of final concentrations, keeping the DMSO concentration at 5%. The final concentrations are 1, 0.33, 0.11, 0.037, 0.012, 0.004, 0.0014, 0.0005 μM; and the final concentration of DMSO is 1%. • 2) Prepare Enzyme/Substrate stock, Recombinant human KDR and Poly E4Y are both diluted in assay buffer. The final concentration is KDR (0.3 ng/μL), Poly E4Y (62.5 ng/μL). […]
Wherein: • 1) Compound well [ADP] represents the ADP concentration of compound well. • 2) Positive control well [ADP] represents the ADP concentration of 5% DMSO well • 3) Conversion of mP value to ADP concentration based on the formula which determined by standard curve. […] (www.bellbrooklabs.com). • IC50: calculated using XL-Fit 2.0 software.

The target in the next test is Syk kinase (Homo sapiens, UniProt P43405). Put plainly: SYK Enzymatic Assay (Z-LYTE Tyr 2 peptide). The format is biochemical. The following applies: 8 concentrations 1 μM down to 0.0003 μM. Put shortly:
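Z-LYTE format using Tyr 2 peptide. After the 1 h room-temperature kinase reaction, development reagent was added for 1 h, then stop reagent. Fluorescence was read at 445 and 520 nm. Compounds were tested at 8 concentrations, 1 μM down to 0.0003 μM (1:3 dilutions).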

Values joined by “and” are separate entries in the source; they are usually repeats but may differ in a detail not shown here. Equal entries are not always repeated.

T1 sequence (P35968 20-1356): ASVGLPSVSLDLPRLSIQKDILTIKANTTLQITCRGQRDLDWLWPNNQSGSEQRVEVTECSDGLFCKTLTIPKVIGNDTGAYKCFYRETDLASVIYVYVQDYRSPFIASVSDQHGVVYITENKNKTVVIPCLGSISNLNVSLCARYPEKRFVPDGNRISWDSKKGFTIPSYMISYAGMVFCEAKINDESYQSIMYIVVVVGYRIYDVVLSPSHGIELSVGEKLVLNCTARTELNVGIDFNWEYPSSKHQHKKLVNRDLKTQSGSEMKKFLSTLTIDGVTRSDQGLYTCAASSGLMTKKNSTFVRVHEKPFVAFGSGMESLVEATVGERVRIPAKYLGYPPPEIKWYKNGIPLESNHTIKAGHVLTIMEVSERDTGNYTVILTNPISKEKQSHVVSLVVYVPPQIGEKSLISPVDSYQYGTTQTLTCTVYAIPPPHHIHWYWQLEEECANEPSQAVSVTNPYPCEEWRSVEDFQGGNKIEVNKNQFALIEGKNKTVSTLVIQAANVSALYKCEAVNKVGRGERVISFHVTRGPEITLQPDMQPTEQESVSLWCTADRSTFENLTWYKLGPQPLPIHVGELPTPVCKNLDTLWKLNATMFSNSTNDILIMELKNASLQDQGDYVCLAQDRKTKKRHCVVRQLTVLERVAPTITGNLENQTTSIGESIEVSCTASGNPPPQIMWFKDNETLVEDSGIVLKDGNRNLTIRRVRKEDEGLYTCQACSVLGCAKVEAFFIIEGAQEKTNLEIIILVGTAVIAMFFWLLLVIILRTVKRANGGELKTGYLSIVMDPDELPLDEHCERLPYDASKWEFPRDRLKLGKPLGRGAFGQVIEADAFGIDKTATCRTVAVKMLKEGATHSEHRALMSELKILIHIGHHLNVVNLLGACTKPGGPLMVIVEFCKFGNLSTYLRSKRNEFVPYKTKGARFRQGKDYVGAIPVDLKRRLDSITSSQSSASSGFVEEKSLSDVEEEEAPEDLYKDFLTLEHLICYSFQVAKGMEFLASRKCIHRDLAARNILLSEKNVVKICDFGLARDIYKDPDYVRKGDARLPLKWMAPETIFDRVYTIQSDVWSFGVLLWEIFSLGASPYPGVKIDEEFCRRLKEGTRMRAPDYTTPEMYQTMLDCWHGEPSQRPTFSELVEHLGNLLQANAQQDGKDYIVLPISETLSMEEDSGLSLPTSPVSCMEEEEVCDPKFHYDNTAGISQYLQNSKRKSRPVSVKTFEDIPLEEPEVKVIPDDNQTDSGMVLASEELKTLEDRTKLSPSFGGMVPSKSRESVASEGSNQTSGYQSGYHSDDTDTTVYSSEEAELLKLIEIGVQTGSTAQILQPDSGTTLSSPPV

Consider `CC(C)(O)c1ccc(-c2cc3nccnc3c(OC[C@@H]3CN(S(C)(=O)=O)CCO3)n2)cc1` [Compound 219], for which the IC50 is 0.748 µM at VEGFR-2 (KDR); 0.032 µM and 0.028 µM at Syk kinase.

Regarding `CC(=O)N1CCO[C@H](COc2nc(-c3ccc4c(c3)CCOC4(C)C)cc3nccnc23)C1` [Compound 300], the IC50 was 1.13 µM on VEGFR-2 (KDR) and 0.03 µM at Syk kinase.
